Measurements as given in patent US10626135B2, “Crystal forms of sodium-glucose co-transporter inhibitor, processes for preparation and use thereof” (CRYSTAL PHARMACEUTICAL (SUZHOU) CO., LTD., priority 2016, dated 2020).
Values after ≈ are worked out from the molar mass of the structure shown. “Also recorded” adds a separate entry of the source.

Legend:
[1] = Hygroscopicity assessment by dynamic vapor sorption (DVS); assay type: physicochemical; settings: 25° C.; for Form change before and after DVS: XRPD
Description: Dynamic Vapor Sorption (DVS) is measured via a SMS (Surface Measurement Systems Ltd.) intrinsic DVS. Typical Parameters for DVS test are as follows: Temperature: 25° C. Gas and flow rate: N2, 200 mL/min dm/dt: 0.002%/min Relative Humidity (RH) range: 20% RH-95% RH-0% RH-95% RH Dynamic vapor sorption (DVS) was applied to test hygroscopicity of crystalline Form I with 13.8 mg of sample Form I at 25° C. The weight gains at each relative humidity were recorded in a cycle of 20%-95%-0%-95% RH. […] Dynamic vapor sorption (DVS) was applied to test hygroscopicity of Form VII with 11.5 mg of sample Form VII at 25° C. The weight gains at each relative humidity were recorded in a cycle of 0%-95%-0% RH.

[2] = Stability study: storage at 25° C./60% RH and 40° C./75% RH, XRPD; assay type: physicochemical; settings: for Stability on storage: 25° C./60% RH and 40° C./75% RH for 3 months; for Solid Form after storage: 3 months
Description: Form I, Form II, Form III and Form VI were stored under different conditions of 25° C./60% RH and 40° C./75% RH for 3 months. XRPD was applied to detect the crystalline forms. The XRPD overlay of Form I, Form II, Form III and Form VI before and after stored under above two conditions were shown in FIG. 44, FIG. 45, FIG. 46 and FIG. 47, respectively.

[3] = Mechanical stability assessment: manual grinding, XRPD; assay type: physicochemical; settings: ground manually for 5 minutes in mortar
Description: Solid sample of Form I, Form VI and the existing crystalline Form 2 were ground manually for 5 minutes in mortar. XRPD was applied to detect the crystalline form.

[4] = Morphology assessment by polarized light microscopy; assay type: physicochemical
Description: The existing crystalline Form 2 and Form I in the present disclosure were tested by polarized light microscopy. The PLM results of the Form 2 and Form I were shown in FIG. 48 and FIG. 49, respectively.

[5] = Dynamic solubility in FaSSIF (fasted state simulated intestinal fluids, pH=6.5), HPLC; assay type: physicochemical; settings: for Solubility relative to existing crystalline Form 2: FaSSIF, 1 hour
Description: (§1) The HPLC method parameters for solubility test in the present disclosure are as follows:
(§2) Saturated solutions of Form I, Form II, Form III, Form VII and the existing crystalline Form 2 in SGF (Simulated gastric fluids) were prepared. Saturated solutions of Form II, Form III, Form VII, Form VIII and the existing crystalline Form 2 in FaSSIF (Fasted state simulated intestinal fluids, pH=6.5) were prepared. After equilibrated for 1 hour, concentrations of the saturated solutions were measured by High Performance Liquid Chromatography (HPLC).

[6] = Dynamic solubility in SGF (simulated gastric fluids), HPLC; assay type: physicochemical; settings: for Solubility 1 hour: Media: SGF, equilibrated for 1 hour; for Solubility relative to existing crystalline Form 2: SGF, 1 hour
Description: as §1, §2

[7] = Particle size distribution assessment (laser particle size analyzer); assay type: physicochemical; settings: for D10 / D50 / D90 / MV (average particle size based on volume): wet method, Isopar G
From the text: The result of particle size distribution (PSD) in the present disclosure was acquired by laser particle size analyzer with S3500 model from Microtrac Company. The Microtrac S3500 is equipped with a SDC (Sample Delivery Controller) sampling system. This experiment uses a wet method and the dispersion medium is Isopar G. The method and parameters of the laser particle size analyzer are as follows: [table] Certain amount of Form I, Form V, Form VIII and existing crystalline Form 2 were taken for particle size distribution test, and the results were shown in Table 29.

[8] = system: people with type 2 diabetes; settings: Phase 2, type 2 diabetes, including those with renal impairment; cited from earlier work
[9] = system: type 1 diabetics; settings: Phase 2, type 1 diabetics, compared with placebo; cited from earlier work
[10] = Stability study: mixture of forms stirred in solvent systems with different water activity, residual solid by XRPD; assay type: physicochemical; settings: high water activity (high humidity, ≥50% RH)
From the text: The mixture of existing crystalline Form 2 disclosed in CN102112483A, Form I and Form II was stirred in several solvent systems with different water activity (aw).
It should be noted that the solvent systems for different water activity (aw) include but not limit to H2O and IPA. The same conclusion could be drawn with this experiment in other solvent systems suitable for the preparation of different water activity (aw).

[11] = Table 27, head prints Media:SGF, text says FaSSIF pH=6.5, equilibrated for 1 hour

Row | Weight gain under 80% RH ([1]; cycle 20%-95%-0%-95% RH) [%] | Stability on storage [2] | Solid Form after storage ([2]; 25° C./60% RH) | Solid Form after storage ([2]; 40° C./75% RH) | Crystallinity [3] | Mechanical stability [3] | Crystal shape (PLM) [4] | Solubility 1 hour [5, 11] [µg/mL] | Solubility 1 hour [6] [µg/mL] | Particle size distribution (description) [7] | D10 [7] [μm] | D50 [7] [μm] | D90 [7] [μm] | MV (average particle size based on volume) [7] [μm] | Solubility relative to existing crystalline Form 2 [6] [times] | Solubility relative to existing crystalline Form 2 [5] [times] | SMILES | Form change before and after DVS ([1]; cycle 20%-95%-0%-95% RH) | Final form [3] | other results
1 | 1.80 | good stability | Form VI (the middle | Form VI (the bottom | Decreased (Slightly | better mechanical stability | – | – | – | – | – | – | – | – | – | – | CCOc1ccc(Cc2cc([C@@H]3O[C@H](SC)[C@@H](O)[C@H](O)[C@H]3O)ccc2Cl)cc1 [Form VI, (2S,3R,4R,5S,6R)-2-(4-chloro-3-(4-ethoxybenzyl)phenyl)-6-(methylthio)tetrahydro-2H-pyran-3,4,5-triol] | substantially unchanged; also recorded: No form change | no crystalline form change; also recorded: Form VI | –
2 | – | – | – | – | – | – | – | 180 (≈ 424 µM) | – | narrow and normal | 7.30 | 36.60 | 112.4 | 51.93 | – | 1.4 | CCOc1ccc(Cc2cc([C@@H]3O[C@H](SC)[C@@H](O)[C@H](O)[C@H]3O)ccc2Cl)cc1 [Form VIII, (2S,3R,4R,5S,6R)-2-(4-chloro-3-(4-ethoxybenzyl)phenyl)-6-(methylthio)tetrahydro-2H-pyran-3,4,5-triol] | – | – | Weight gain under 80% RH ([1]; cycle 0%-95%-0% RH): 0.60%; Form change before and after DVS ([1]; cycle 0%-95%-0% RH): substantially unchanged; also recorded: No form change
3 | – | – | – | – | – | – | irregular massive shape | 200 (≈ 471 µM) | 150 (≈ 353 µM) | – | – | – | – | – | 2.5 | 1.5 | CCOc1ccc(Cc2cc([C@@H]3O[C@H](SC)[C@@H](O)[C@H](O)[C@H]3O)ccc2Cl)cc1 [Form VII, (2S,3R,4R,5S,6R)-2-(4-chloro-3-(4-ethoxybenzyl)phenyl)-6-(methylthio)tetrahydro-2H-pyran-3,4,5-triol] | – | – | Weight gain under 80% RH ([1]; cycle 0%-95%-0% RH): 1.08%; Form change before and after DVS ([1]; cycle 0%-95%-0% RH): substantially unchanged; also recorded: No form change

Second part, the compound before the results:

Row | SMILES | Weight gain under 80% RH ([1]; cycle 20%-95%-0%-95% RH) [%] | Stability on storage [2] | Solid Form after storage ([2]; 25° C./60% RH) | Solid Form after storage ([2]; 40° C./75% RH) | Crystallinity [3] | Mechanical stability [3] | Crystal shape (PLM) [4] | Solubility 1 hour [5, 11] [µg/mL] | Solubility 1 hour [6] [µg/mL] | Particle size distribution (description) [7] | D10 [7] [μm] | D50 [7] [μm] | D90 [7] [μm] | MV (average particle size based on volume) [7] [μm] | Solubility relative to existing crystalline Form 2 [6] [times] | Solubility relative to existing crystalline Form 2 [5] [times] | Form change before and after DVS ([1]; cycle 20%-95%-0%-95% RH) | Final form [3] | other results
4 | CCOc1ccc(Cc2cc([C@@H]3O[C@H](SC)[C@@H](O)[C@H](O)[C@H]3O)ccc2Cl)cc1 [Form 2, (2S,3R,4R,5S,6R)-2-(4-chloro-3-(4-ethoxybenzyl)phenyl)-6-(methylthio)tetrahydro-2H-pyran-3,4,5-triol, reference compound] | – | – | – | – | Decreased (Mainly | poor mechanical stability | needle-like shape | 130 (≈ 306 µM) | 60 (≈ 141 µM) | wide and bimodal | 2.32 | 45.00 | 144.4 | 60.43 | – | – | – | Form 2 | –
5 | CCOc1ccc(Cc2cc([C@@H]3O[C@H](SC)[C@@H](O)[C@H](O)[C@H]3O)ccc2Cl)cc1 [Sotagliflozin, (2S,3R,4R,5S,6R)-2-(4-chloro-3-(4-ethoxybenzyl)phenyl)-6-(methylthio)tetrahydro-2H-pyran-3,4,5-triol] | – | – | – | – | – | – | – | – | – | – | – | – | – | – | – | – | – | – | Blood pressure [8]: blood pressure improvements; Blood sugar [8]: lowering of blood sugar; Weight [8]: weight loss; Blood sugar [9]: reduction of blood sugar; Glycaemic variability [9]: improvement in glycaemic variability; Meal-time insulin dose [9]: reduced meal-time insulin dose
6 | CCOc1ccc(Cc2cc([C@@H]3O[C@H](SC)[C@@H](O)[C@H](O)[C@H]3O)ccc2Cl)cc1 [Form I, (2S,3R,4R,5S,6R)-2-(4-chloro-3-(4-ethoxybenzyl)phenyl)-6-(methylthio)tetrahydro-2H-pyran-3,4,5-triol] | 3.55 | good stability | Form I (the middle | Form I (the bottom | Decreased (Slightly | better mechanical stability | rod-like shape | – | 100 (≈ 235 µM) | narrow and normal | 3.34 | 8.97 | 31.63 | 14.48 | 1.7 | – | substantially unchanged; also recorded: No form change | no crystalline form change; also recorded: Form I | Stability in high water activity environment [10]: more stable than Form 2
7 | CCOc1ccc(Cc2cc([C@@H]3O[C@H](SC)[C@@H](O)[C@H](O)[C@H]3O)ccc2Cl)cc1 [Form III, (2S,3R,4R,5S,6R)-2-(4-chloro-3-(4-ethoxybenzyl)phenyl)-6-(methylthio)tetrahydro-2H-pyran-3,4,5-triol] | 0.13 | good stability | Form III (the middle | Form III (the bottom | – | – | – | 180 (≈ 424 µM) | 130 (≈ 306 µM) | – | – | – | – | – | 2.2 | 1.4 | substantially unchanged; also recorded: No form change | – | –
8 | CCOc1ccc(Cc2cc([C@@H]3O[C@H](SC)[C@@H](O)[C@H](O)[C@H]3O)ccc2Cl)cc1 [Form II, (2S,3R,4R,5S,6R)-2-(4-chloro-3-(4-ethoxybenzyl)phenyl)-6-(methylthio)tetrahydro-2H-pyran-3,4,5-triol] | 2.46 | good stability | Form II (the middle | Form II (the bottom | – | – | – | – | 80 (≈ 188 µM) | – | – | – | – | – | – | – | substantially unchanged; also recorded: No form change | – | Stability in high water activity environment [10]: more stable than Form 2; solubility at 1 h ([5]; fasted state simulated intestinal fluid (FaSSIF), pH 6.5, fassif, thermodynamic from solid, Table 27, head prints Media:SGF, text says FaSSIF pH=6.5, equilibrated for 1 hour): 150 µg/mL (≈ 353 µM)
9 | CCOc1ccc(Cc2cc([C@@H]3O[C@H](SC)[C@@H](O)[C@H](O)[C@H]3O)ccc2Cl)cc1 [Form V, (2S,3R,4R,5S,6R)-2-(4-chloro-3-(4-ethoxybenzyl)phenyl)-6-(methylthio)tetrahydro-2H-pyran-3,4,5-triol] | – | – | – | – | – | – | – | – | – | narrow and normal | 4.38 | 18.81 | 72.98 | 32.70 | – | – | – | – | –
